Holding throughout (format): functional
For assay [1], the system named is Mycobacterium tuberculosis. Description: Antibacterial activity against multidrug-resistant Mycobacterium tuberculosis M22 after 9 days by inverted microscopic analysis. The conditions noted are these: M22, 216 h.
Assay [2] deals with Mycobacterium tuberculosis. The experiment in a line: Antibacterial activity against multidrug-resistant Mycobacterium tuberculosis P887 after 9 days by inverted microscopic analysis. Conditions: P887, 216 h.
Assay [3] deals with Mycobacterium tuberculosis. Description: Antibacterial activity against extensively drug resistant Mycobacterium tuberculosis X24 after 9 days by inverted microscopic analysis. Conditions: X24, 216 h.
Assay [4] concerns Mycobacterium tuberculosis. The experiment in a line: Antibacterial activity against multidrug-resistant Mycobacterium tuberculosis M23 after 9 days by inverted microscopic analysis. The conditions noted are these: M23, 216 h.
Assay [5] concerns Mycobacterium tuberculosis. The experiment in a line: Antibacterial activity against extensively drug resistant Mycobacterium tuberculosis X59 after 9 days by inverted microscopic analysis. The conditions noted are these: X59, 216 h.

Converted amounts (≈) assume the structure as drawn.

Usually MIC stands for the smallest concentration in the dilution series that meets the test's criterion for growth inhibition. High values mean a need for much substance, low ones inhibition by little substance.

For the molecule `Cc1ccn2nc(S(=O)(=O)Nc3c(Br)ccc4cccnc34)nc2n1`, the MIC in assay [1], in assay [2], in assay [3], in assay [4] and in assay [5] was 0.5 µM (≈ 0.21 µg/mL) each time.

With `Cc1nc2nc(S(=O)(=O)Nc3c(Br)ccc4cccnc34)nn2c2c1CCC2`, the MIC in assay [1], in assay [2], in assay [3], in assay [4] and in assay [5] was 2 µM (≈ 0.919 µg/mL) in each case.

The values are drawn from ChEMBL document CHEMBL4480398, “1,2,4-Triazolo[1,5-a]pyrimidines in drug design” (Eur J Med Chem, 2019).
